Experimental data: patent US10392643B2, “Methods of using acyl-CoA synthetase for biosynthetic production of acyl-CoAs” (Conagen Inc., priority 2013, dated 2019)

Tested on: ghost pepper ACS1
Experiment: HPLC-based method to measure the activity of ghost pepper ACS1 against carboxylic acids
Assay type: biochemical, ghost chili pepper
Settings: for activities of ACS1 against various carboxylic acids (FIG. 8): 200 μM carboxylic acids as substrate, 30 min, acyl-CoA formation by HPLC at 257 nm, 100 mM Tri buffer, pH8.0 (FIG. 8 legend); for ACS1 activity with 8-methyl-trans-6-nonenoic acid or 8-methylnonanoic acid as a substrate (FIG. 9): HPLC profiles of enzymatic products, 6E compared with 8M
Description: C2, acetic acid; C4, butyric acid; C6, hexanoic acid, C8,caprylic acid; C10, capric acid; C12, lauric acid; C14, myristic acid; C16, palmitic acid; C18, stearic acid. The assay was performed in 100 mM Tri buffer, pH8.0.
Applicants used an HPLC-based method to measure the activity of ghost pepper ACS1 (Chen et al., 2011). Briefly, reaction mixtures (400 μL) contained 0.1 M Tris-HCl, […], 2 mM DTT, 5 mM ATP, 10 mM MgCl2, 0.5 mM CoA, 0.1% Triton and 200 μM carboxylic acids. The reaction was initiated by adding 20 μl of purified enzyme and stopped after 30 min by addition of 20 μl al acetic acid. HPLC was performed with Dionex-UltiMate® 3000 LC Systems (Thermo Scientific) using an Acclaim® 120 C18 reversed-phase column (Thermo Scientific; 3 μ, 120 Å, 150×3 mm). The mobile phase consisted of solvent A (0.1% trifluoroacetic acid) and solvent B (acetonitrile). The gradient elution procedure was as follows: 0 to 5 min, 5% of B; 5 to 9 min, a linear gradient from 5 to 80% of B; 9 to 11 min, 80% of B; 11 to 12 min, 5% of B. The flow rate was 0.6 ml/min. The diode array detector collected data in the 200- to 400-nm range. For detection and quantification of substrate and products, peak areas were measured at 257 nm.

| Compound | activities of ACS1 against various carboxylic acids (FIG. 8) | ACS1 activity with 8-methyl-trans-6-nonenoic acid or 8-methylnonanoic acid as a substrate (FIG. 9) |
| --- | --- | --- |
| CCCC(=O)O [butyric acid] | did not show any activity |  |
| CC(C)/C=C/CCCCC(=O)O [6E, 8-methyl-trans-6-nonenoic acid] |  | higher activity |
| CC(C)CCCCCCC(=O)O [8M, 8-methylnonanoic acid] |  | showed activities |
| CCCCCCCCCC(=O)O [capric acid] | highest activity |  |
| CC(=O)O [acetic acid] | did not show any activity |  |
